Where two headings read alike, the source gives them in different places.
What was measured:
[1] = rcm bond
[2] = target: T1, purified human Factor XIa (Homo sapiens, UniProt P03951); test: Factor XIa inhibition assay (chromogenic substrate hydrolysis, Ki); format: biochemical; conditions: substrate S-2366, pH 7.4
T1 construct: purchased Haematologic Technologies

[3] = target: T2, purified human plasma kallikrein (Homo sapiens, UniProt P03952); test: Plasma kallikrein inhibition assay (chromogenic substrate hydrolysis, Ki); format: biochemical; conditions: substrate S-2302, pH 7.5
T2 construct: Plasma prekallikrein is a zymogen of a trypsin-like serine protease; purchased Enzyme Research Laboratories
T2 sequence (P03952 391-638 limits assumed): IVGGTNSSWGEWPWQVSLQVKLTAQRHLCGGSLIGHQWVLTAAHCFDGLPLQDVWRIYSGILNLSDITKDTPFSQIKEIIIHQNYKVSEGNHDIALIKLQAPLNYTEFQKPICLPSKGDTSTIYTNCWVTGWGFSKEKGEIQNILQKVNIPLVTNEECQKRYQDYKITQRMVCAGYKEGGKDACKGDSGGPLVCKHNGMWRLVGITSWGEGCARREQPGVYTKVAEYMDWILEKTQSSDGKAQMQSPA
T2 sequence (P03952 20-390 partner limits assumed): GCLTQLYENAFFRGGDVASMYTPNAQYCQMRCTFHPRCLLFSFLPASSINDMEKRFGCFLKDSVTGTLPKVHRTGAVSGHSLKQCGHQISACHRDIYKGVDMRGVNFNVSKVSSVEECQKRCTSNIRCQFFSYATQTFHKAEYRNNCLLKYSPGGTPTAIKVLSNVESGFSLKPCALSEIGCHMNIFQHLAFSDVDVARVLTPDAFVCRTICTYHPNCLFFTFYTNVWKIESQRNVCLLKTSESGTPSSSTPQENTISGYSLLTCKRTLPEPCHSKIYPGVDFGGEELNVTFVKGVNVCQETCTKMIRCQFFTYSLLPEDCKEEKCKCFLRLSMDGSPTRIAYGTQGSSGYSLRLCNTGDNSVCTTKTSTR

T1 sequence (P03951 388-625 limits assumed): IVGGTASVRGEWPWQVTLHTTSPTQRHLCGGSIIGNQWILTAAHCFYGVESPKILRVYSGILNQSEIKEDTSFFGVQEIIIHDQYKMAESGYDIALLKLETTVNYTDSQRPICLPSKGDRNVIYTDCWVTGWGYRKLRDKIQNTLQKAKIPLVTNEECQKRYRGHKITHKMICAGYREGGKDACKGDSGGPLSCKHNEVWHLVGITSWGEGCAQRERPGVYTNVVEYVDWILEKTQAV
T1 sequence (P03951 19-387 partner limits assumed): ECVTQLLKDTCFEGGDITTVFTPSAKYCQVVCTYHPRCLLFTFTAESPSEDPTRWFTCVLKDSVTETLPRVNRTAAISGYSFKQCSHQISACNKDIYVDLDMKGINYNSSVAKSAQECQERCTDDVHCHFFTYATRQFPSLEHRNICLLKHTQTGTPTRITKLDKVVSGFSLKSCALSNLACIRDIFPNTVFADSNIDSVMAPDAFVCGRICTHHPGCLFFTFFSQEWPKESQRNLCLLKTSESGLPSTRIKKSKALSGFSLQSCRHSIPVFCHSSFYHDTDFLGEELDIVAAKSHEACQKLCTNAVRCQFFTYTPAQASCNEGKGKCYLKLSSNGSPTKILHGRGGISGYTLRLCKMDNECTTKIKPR

| SMILES | Ki [2] [nM] | Ki [3] [nM] | also measured |
| --- | --- | --- | --- |
| CC(C)(C)OC(=O)N[C@H]1CC=CCCNC(=O)[C@@H]2C[C@@H]2c2ccnc1c2 | – | – | ring closure, isolated yield ([1]; from C=CCCNC(=O)[C@@H]1C[C@@H]1c1ccnc([C@H](CC=C)NC(=O)OC(C)(C)C)c1, 13-membered ring, Grubbs II (0.2 eq)/pTsOH, DCM, 4.7 mM, 40.0 °C, 2.0 h): 65% |
| O=C1CCCc2ccnc(c2)[C@@H](n2cnc(-c3cc(Cl)ccc3-n3cc(Cl)nn3)cc2=O)CCCCCN1 [Example 32, (12S)-12-{4-[5-Chloro-2-(4-chloro-1H-1,2,3-triazol-1-yl)phenyl]-6-oxo-1,6-dihydropyrimidin-1-yl}-6,14-diazabicyclo[11.3.1]heptadeca-1(17),13,15-trien-5-one] | 27.8 | 1890 | – |
| CNC(=O)OC[C@H]1Cc2cccc(c2)[C@@H](n2cnc(-c3cc(Cl)ccc3-n3cc(C(F)(F)F)nn3)cc2=O)CCC[C@@H](C)C(=O)N1 [Example 3, [(3R,6R,10S)-10-(4-{5-chloro-2-[4-(trifluoromethyl)-1H-1,2,3-triazol-1-yl]phenyl}-6-oxo-1,6-dihydropyrimidin-1-yl)-6-methyl-5-oxo-4-azabicyclo[9.3.1]pentadeca-1(15),11,13-trien-3-yl]methyl N-methylcarbamate] | 109 | – | – |
| COC(=O)NCC[C@@H]1Cc2cccc(c2)[C@@H](n2cnc(-c3cc(Cl)ccc3-n3cc(C(F)(F)F)nn3)cc2=O)CCC[C@@H](C)C(=O)N1 [Example 8, methyl N-{2-[(3S,6R,10S)-10-(4-{5-chloro-2-[4-(trifluoromethyl)-1H-1,2,3-triazol-1-yl]phenyl}-6-oxo-1,6-dihydropyrimidin-1-yl)-6-methyl-5-oxo-4-azabicyclo[9.3.1]pentadeca-1(15),11,13-trien-3-yl]ethyl}carbamate] | ≤ 5 | 1790 | – |
| O=C1NCCCCC[C@H](n2cnc(-c3cc(Cl)ccc3-n3cc(Cl)nn3)cc2=O)c2cc(ccn2)[C@@H]2C[C@H]12 [Example 34, (2R,4S,12S)-12-{4-[5-Chloro-2-(4-chloro-1H-1,2,3-triazol-1-yl)phenyl]-6-oxo-1,6-dihydropyrimidin-1-yl}-6,14-diazatricyclo[11.3.1.0^2,^4]heptadeca-1(17),13,15-trien-5-one] | 96 | 3100 | – |
| COC(=O)[C@H]1Cc2cccc(c2)[C@@H](NC(=O)OCc2ccccc2)C/C=C/[C@@H](C)C(=O)N1 | – | – | ring closure, isolated yield ([1]; from C=CC[C@H](NC(=O)OCc1ccccc1)c1cccc(C[C@@H](NC(=O)[C@H](C)C=C)C(=O)OC)c1, 12-membered ring, Grubbs II (0.2 eq), microwave 45 min, DCE, 9.8 mM, 120.0 °C, 0.75 h): 53.2% |
| C[C@@H]1CCC[C@H](n2cnc(-c3cc(Cl)ccc3-n3cc(C(F)(F)F)nn3)cc2=O)c2cccc(c2)C2C(CCCN2C)NC1=O (single isomer, unassigned) [Example 27] | < 5 | 409 | – |
| C[C@@H]1/C=C/C[C@H](NC(=O)OCc2ccccc2)c2cccc(c2)C[C@H](CC#N)NC1=O | – | – | ring closure, isolated yield ([1]; from C=CC[C@H](NC(=O)OCc1ccccc1)c1cccc(C[C@H](CC#N)NC(=O)[C@H](C)C=C)c1, 12-membered ring, Grubbs II (0.2 eq), microwave 30 min, DCE, 8.5 mM, 120.0 °C, 0.5 h): 56.2% |
| O=C1NCCCCC[C@H](n2cnc(-c3cc(Cl)ccc3-n3cc(Cl)nn3)cc2=O)c2cc(ccn2)[C@H]2C[C@@H]12 [Example 31, (2S,4R,12S)-12-{4-[5-Chloro-2-(4-chloro-1H-1,2,3-triazol-1-yl)phenyl]-6-oxo-1,6-dihydropyrimidin-1-yl}-6,14-diazatricyclo[11.3.1.0^2,^4]heptadeca-1(17),13,15-trien-5-one] | 12.7 | 81.4 | – |
| C[C@@H]1/C=C/C[C@H](NC(=O)OC(C)(C)C)c2cc(ccn2)C(C)(C)CNC1=O | – | – | ring closure, isolated yield ([1]; from C=CC[C@H](NC(=O)OC(C)(C)C)c1cc(C(C)(C)CNC(=O)[C@H](C)C=C)ccn1, 12-membered ring, Grubbs II (0.4 eq), microwave 30 min, DCE, 49.8 mM, 120.0 °C, 0.5 h): 43% |

Now from value to molecule, other results behind:

| Ki [2] [nM] | Ki [3] [nM] | SMILES | also measured |
| --- | --- | --- | --- |
| 5 | 1290 | C[C@@H]1CCC[C@H](n2cnc(-c3cc(Cl)ccc3-n3cc(C(F)(F)F)nn3)cc2=O)c2cccc(c2)C[C@@H](CC#N)NC1=O [Example 9, 2-[(3S,6R,10S)-10-(4-{5-chloro-2-[4-(trifluoromethyl)-1H-1,2,3-triazol-1-yl]phenyl}-6-oxo-1,6-dihydropyrimidin-1-yl)-6-methyl-5-oxo-4-azabicyclo[9.3.1]pentadeca-1(15),11,13-trien-3-yl]acetonitrile] | – |
| 1130 | 11200 | C[C@@H]1CCC[C@H](n2cnc(-c3cc(Cl)ccc3-n3cc(C(F)(F)F)nn3)cc2=O)c2cccc(c2)C2C(CCCN2C)NC1=O (single isomer, unassigned) [Example 28] | – |
| 53 | – | COC(=O)[C@H]1Cc2cccc(c2)[C@@H](n2cnc(-c3cc(Cl)ccc3-n3cc(Cl)nn3)cc2=O)CCC[C@@H](C)C(=O)N1 [Example 1, methyl (3R,6R,10S)-10-{4-[5-chloro-2-(4-chloro-1H-1,2,3-triazol-1-yl)phenyl]-6-oxo-1,6-dihydropyrimidin-1-yl}-6-methyl-5-oxo-4-azabicyclo[9.3.1]pentadeca-1(15),11,13-triene-3-carboxylate] | – |
| 445 | – | C[C@@H]1CCC[C@H](n2cnc(-c3cc(Cl)ccc3-n3cc(C(F)(F)F)nn3)cc2=O)c2cccc(c2)C[C@H](CO)NC1=O [Example 2, (3R,6R,10S)-10-(4-{5-chloro-2-[4-(trifluoromethyl)-1H-1,2,3-triazol-1-yl]phenyl}-6-oxo-1,6-dihydropyrimidin-1-yl)-3-(hydroxymethyl)-6-methyl-4-azabicyclo[9.3.1]pentadeca-1(15),11,13-trien-5-one] | – |
| 284 | 4210 | C[C@@H]1CCC[C@H](n2cnc(-c3cc(Cl)ccc3-n3cc(C(F)(F)F)nn3)cc2=O)c2cccc(c2)C[C@H](CC#N)NC1=O [Example 5, 2-[(3R,6R,10S)-10-(4-{5-chloro-2-[4-(trifluoromethyl)-1H-1,2,3-triazol-1-yl]phenyl}-6-oxo-1,6-dihydropyrimidin-1-yl)-6-methyl-5-oxo-4-azabicyclo[9.3.1]pentadeca-1(15),11,13-trien-3-yl]acetonitrile] | – |
| 120 | 6970 | CC(=O)N1CCCC2NC(=O)[C@H](C)CCC[C@H](n3cnc(-c4c(-n5cc(Cl)nn5)ccc(Cl)c4F)cc3=O)c3cccc(c3)C21 (single isomer, unassigned) [Example 26] | – |
| 986 | 6200 | Cc1c(C(=O)N[C@H]2CCC[C@@H](C)C(=O)N[C@@H](CC#N)Cc3cccc2c3)ncn1-c1cccc(Cl)c1F [Example 6, 1-(3-chloro-2-fluorophenyl)-N-[(3R,6R,10S)-3-(cyanomethyl)-6-methyl-5-oxo-4-azabicyclo[9.3.1]pentadeca-1(15),11,13-trien-10-yl]-5-methyl-1H-imidazole-4-carboxamide] | – |
| 130 | 8270 | COC(=O)NCC[C@H]1Cc2cccc(c2)[C@@H](n2cnc(-c3cc(Cl)ccc3-n3cc(C(F)(F)F)nn3)cc2=O)CCC[C@@H](C)C(=O)N1 [Example 4, methyl N-{2-[(3R,6R,10S)-10-(4-{5-chloro-2-[4-(trifluoromethyl)-1H-1,2,3-triazol-1-yl]phenyl}-6-oxo-1,6-dihydropyrimidin-1-yl)-6-methyl-5-oxo-4-azabicyclo[9.3.1]pentadeca-1(15),11,13-trien-3-yl]ethyl}carbamate] | – |
| 355 | 3610 | O=C1NCC/C=C/C[C@H](n2cnc(-c3cc(Cl)ccc3-n3cc(Cl)nn3)cc2=O)c2cc(ccn2)[C@H]2C[C@@H]12 [Example 33, (2S,4R,9E,12S)-12-{4-[5-Chloro-2-(4-chloro-1H-1,2,3-triazol-1-yl)phenyl]-6-oxo-1,6-dihydropyrimidin-1-yl}-6,14-diazatricyclo[11.3.1.0^2,^4]heptadeca-1(17),9,13,15-tetraen-5-one] | – |
| 1420 | – | CC(=O)N1CCCC2NC(=O)[C@H](C)CCC[C@H](n3cnc(-c4c(-n5cc(Cl)nn5)ccc(Cl)c4F)cc3=O)c3cccc(c3)C21 (single isomer, unassigned) [Example 25] | – |

Source: US10287288B2, “Factor XIa macrocyclic inhibitors bearing alkyl or cycloalkyl P2' moieties” (BRISTOL-MYERS SQUIBB COMPANY, priority 2015, dated 2019)
